Measured values published in the NIST ThermoML archive (doi:10.1021/je200721d).

Assay: xn = mol fraction of the nth substance listed
Conditions: Liquid, Vibrating tube method

CCCCCCCCCC [decane] + CCCCCC
Conditions | mass density [kg/m3]
362.91 K, 7000 kPa, x2 = 0.0456 | 681.43
362.91 K, 8000 kPa, x2 = 0.0456 | 682.51
362.91 K, 9000 kPa, x2 = 0.0456 | 683.59
362.91 K, 10000 kPa, x2 = 0.0456 | 684.65
362.91 K, 11000 kPa, x2 = 0.0456 | 685.7
362.91 K, 12000 kPa, x2 = 0.0456 | 686.71
362.91 K, 13000 kPa, x2 = 0.0456 | 687.73
362.91 K, 14000 kPa, x2 = 0.0456 | 688.73
362.91 K, 15000 kPa, x2 = 0.0456 | 689.71
362.91 K, 16000 kPa, x2 = 0.0456 | 690.69
362.91 K, 17000 kPa, x2 = 0.0456 | 691.65
362.91 K, 18000 kPa, x2 = 0.0456 | 692.61
362.91 K, 19000 kPa, x2 = 0.0456 | 693.55
362.91 K, 20000 kPa, x2 = 0.0456 | 694.48
362.91 K, 21000 kPa, x2 = 0.0456 | 695.43
362.91 K, 22000 kPa, x2 = 0.0456 | 696.32
362.91 K, 23000 kPa, x2 = 0.0456 | 697.22
362.91 K, 24000 kPa, x2 = 0.0456 | 698.09
362.91 K, 25000 kPa, x2 = 0.0456 | 698.96
362.93 K, 1000 kPa, x2 = 0.7524 | 623.36
362.93 K, 2000 kPa, x2 = 0.7524 | 624.97
362.93 K, 3000 kPa, x2 = 0.7524 | 626.55
362.93 K, 4000 kPa, x2 = 0.7524 | 628.12
362.93 K, 5000 kPa, x2 = 0.7524 | 629.63
362.93 K, 6000 kPa, x2 = 0.7524 | 631.14
362.93 K, 7000 kPa, x2 = 0.7524 | 632.58
362.93 K, 8000 kPa, x2 = 0.7524 | 634.03
362.93 K, 9000 kPa, x2 = 0.7524 | 635.42
362.93 K, 10000 kPa, x2 = 0.7524 | 636.78
362.93 K, 11000 kPa, x2 = 0.7524 | 638.11
362.93 K, 12000 kPa, x2 = 0.7524 | 639.39
362.93 K, 13000 kPa, x2 = 0.7524 | 640.69
362.93 K, 14000 kPa, x2 = 0.7524 | 641.96
362.93 K, 15000 kPa, x2 = 0.7524 | 643.24
362.93 K, 16000 kPa, x2 = 0.7524 | 644.37
362.93 K, 17000 kPa, x2 = 0.7524 | 645.56
362.93 K, 18000 kPa, x2 = 0.7524 | 646.73
362.93 K, 19000 kPa, x2 = 0.7524 | 647.87
362.93 K, 20000 kPa, x2 = 0.7524 | 649
362.93 K, 21000 kPa, x2 = 0.7524 | 650.11
362.93 K, 22000 kPa, x2 = 0.7524 | 651.2
362.93 K, 23000 kPa, x2 = 0.7524 | 652.27
362.93 K, 24000 kPa, x2 = 0.7524 | 653.3
362.93 K, 25000 kPa, x2 = 0.7524 | 654.33
362.94 K, 1000 kPa, x2 = 0.4968 | 646.01
362.94 K, 2000 kPa, x2 = 0.4968 | 647.42
362.94 K, 3000 kPa, x2 = 0.4968 | 648.86
362.94 K, 4000 kPa, x2 = 0.4968 | 650.21
362.94 K, 5000 kPa, x2 = 0.4968 | 651.6
362.94 K, 6000 kPa, x2 = 0.4968 | 652.91
362.94 K, 7000 kPa, x2 = 0.4968 | 654.2
362.94 K, 8000 kPa, x2 = 0.4968 | 655.48
362.94 K, 9000 kPa, x2 = 0.4968 | 656.71
362.94 K, 10000 kPa, x2 = 0.4968 | 657.94
362.94 K, 11000 kPa, x2 = 0.4968 | 659.13
362.94 K, 12000 kPa, x2 = 0.4968 | 660.32
362.94 K, 13000 kPa, x2 = 0.4968 | 661.45
362.94 K, 14000 kPa, x2 = 0.4968 | 662.6
362.94 K, 15000 kPa, x2 = 0.4968 | 663.75
362.94 K, 16000 kPa, x2 = 0.4968 | 664.81
362.94 K, 17000 kPa, x2 = 0.4968 | 665.88
362.94 K, 18000 kPa, x2 = 0.4968 | 666.95
362.94 K, 19000 kPa, x2 = 0.4968 | 667.98
362.94 K, 20000 kPa, x2 = 0.4968 | 669.01
362.94 K, 21000 kPa, x2 = 0.4968 | 670.03
362.94 K, 22000 kPa, x2 = 0.4968 | 671.04
362.94 K, 23000 kPa, x2 = 0.4968 | 672.03
362.94 K, 24000 kPa, x2 = 0.4968 | 673
362.94 K, 25000 kPa, x2 = 0.4968 | 673.96
362.95 K, 1000 kPa, x2 = 0.2185 | 664.98
362.95 K, 2000 kPa, x2 = 0.2185 | 666.23
362.95 K, 3000 kPa, x2 = 0.2185 | 667.46
362.95 K, 4000 kPa, x2 = 0.2185 | 668.71
362.95 K, 5000 kPa, x2 = 0.2185 | 669.93
362.95 K, 6000 kPa, x2 = 0.2185 | 671.12
362.95 K, 7000 kPa, x2 = 0.2185 | 672.27
362.95 K, 8000 kPa, x2 = 0.2185 | 673.43
362.95 K, 9000 kPa, x2 = 0.2185 | 674.54
362.95 K, 10000 kPa, x2 = 0.2185 | 675.66
362.95 K, 11000 kPa, x2 = 0.2185 | 676.75
362.95 K, 12000 kPa, x2 = 0.2185 | 677.81
362.95 K, 13000 kPa, x2 = 0.2185 | 678.85
362.95 K, 14000 kPa, x2 = 0.2185 | 679.9
362.95 K, 15000 kPa, x2 = 0.2185 | 680.96
362.95 K, 16000 kPa, x2 = 0.2185 | 681.94
362.95 K, 17000 kPa, x2 = 0.2185 | 682.95
362.95 K, 18000 kPa, x2 = 0.2185 | 683.9
362.95 K, 19000 kPa, x2 = 0.2185 | 684.89
362.95 K, 20000 kPa, x2 = 0.2185 | 685.85
362.95 K, 21000 kPa, x2 = 0.2185 | 686.79
362.95 K, 22000 kPa, x2 = 0.2185 | 687.72
362.95 K, 23000 kPa, x2 = 0.2185 | 688.63
362.95 K, 24000 kPa, x2 = 0.2185 | 689.54
362.95 K, 25000 kPa, x2 = 0.2185 | 690.43
